Measurements published in ChEMBL document CHEMBL3784914, “Bioactive lignan constituents from the twigs of Sambucus williamsii” (Bioorg Med Chem Lett, 2016).

How the values were obtained:
[1] = test system: A549; test: Cytotoxicity against human A549 cells by SRB assay; type: functional, cell-based
[2] = Cytotoxicity against human SKOV3 cells by SRB assay; type: functional, cell-based; conditions: SK-OV-3
[3] = test system: SK-MEL-2; test: Cytotoxicity against human SK-MEL-2 cells by SRB assay; type: functional, cell-based
[4] = test system: XF498; test: Cytotoxicity against human XF498 cells by SRB assay; type: functional, cell-based
[5] = Anti-neuroinflammatory activity in LPS-activated mouse BV2 cells assessed as inhibition of NO production after 24 hrs by Griess assay; type: functional, cell-based; conditions: BV-2, 24 h
[6] = Cytotoxicity against mouse BV2 cells assessed as cell viability at 20 uM by MTT assay; type: cell-based, BV-2; conditions: read-out: Activity
[7] = Cytotoxicity in rat C6 cells assessed as cell viability at 20 uM after 24 hrs by MTT assay; type: cell-based; conditions: read-out: Activity
[8] = test system: C6; test: Neuroprotective activity in rat C6 cells assessed as NGF secretion at 20 uM after 24 hrs by ELISA; type: functional

Row | Compound | IC50 [1] | IC50 [2] | IC50 [3] | IC50 [4] | IC50 [5] | viability at 20 µM [6] | viability at 24 h, 20 µM [7] | Activity [8]
1 | COc1cc([C@H]2OC[C@H]3[C@@H]2CO[C@@H]3c2cc(OC)c(O)c(OC)c2)ccc1O | > 30 µM | > 30 µM | > 30 µM | > 30 µM | 45.6 µM | 127% | 103% | 96.39%
2 | COc1cc(C[C@H]2CO[C@H](c3ccc(O)c(OC)c3)[C@@]2(O)CO)ccc1O | > 30 µM | > 30 µM | > 30 µM | > 30 µM | 215 µM | 151% | 103% | 107.88%
3 | COc1cc(/C=C/C(=O)OCCCc2cc(OC)c3c(c2)[C@@H](CO)[C@H](c2cc(OC)c(O[C@@H](CO)[C@H](O)c4ccc(O)c(OC)c4)c(OC)c2)O3)ccc1O | 13.2 µM | 15.7 µM | 11.1 µM | 18.1 µM | 6.82 µM | 157% | 92.3% | 183.95%
4 | COc1cc(C[C@@H]2CO[C@H](c3ccc(O)c(OC)c3)[C@]2(O)CO)ccc1O | > 30 µM | > 30 µM | > 30 µM | > 30 µM | > 500 µM | 128% | 106% | 107.97%
5 | COc1cc(/C=C\C(=O)OCCCc2cc(OC)c3c(c2)[C@@H](CO)[C@H](c2cc(OC)c(O[C@H](CO)[C@H](O)c4ccc(O)c(OC)c4)c(OC)c2)O3)ccc1O | 15.8 µM | 17.6 µM | 11.4 µM | 19.6 µM | 14.7 µM | 138% | 97% | 155.96%
6 | COc1cc(/C=C/C(=O)OCCCc2cc(OC)c3c(c2)[C@@H](CO)[C@H](c2cc(OC)c(O[C@H](CO)[C@H](O)c4ccc(O)c(OC)c4)c(OC)c2)O3)ccc1O | 16.4 µM | 17.5 µM | 14.1 µM | 18.4 µM | 7.04 µM | 146% | 82.7% | 153.99%
7 | COc1cc(C(O)[C@H]2CO[C@H](c3ccc(O)c(OC)c3)[C@H]2CO)ccc1O (stereo not given in full) | > 30 µM | > 30 µM | > 30 µM | > 30 µM | 129 µM | 114% | 104% | 101.55%
8 | COc1cc([C@@H]2OC[C@@H]3[C@H]2CO[C@H]3c2ccc(O)c(OC)c2)ccc1O [(+)-PINORESINOL] | > 30 µM | > 30 µM | > 30 µM | > 30 µM | 34.2 µM | 148% | 105% | 106.93%
9 | COc1cc([C@@H]2Oc3c(OC)cc(CCCO)cc3[C@H]2CO)ccc1O [DIHYDRODEHYDRODICONIFERYL ALCOHOL] | > 30 µM | > 30 µM | > 30 µM | > 30 µM | 40 µM | 129% | 105% | 97.14%
10 | COc1cc([C@@H]2c3cc4c(cc3[C@@H](O[C@@H]3O[C@@H]5CO[C@@H](C)O[C@H]5[C@H](O)[C@H]3O)[C@H]3COC(=O)[C@H]23)OCO4)cc(OC)c1O [ETOPOSIDE] |  | 0.84 µM |  |  |  |  |  | 
11 | COc1cc(C[C@H]2CO[C@H](c3ccc(O)c(OC)c3)[C@H]2CO)ccc1O [LARICIRESINOL] | > 30 µM | > 30 µM | > 30 µM | > 30 µM | 72.6 µM | 147% | 101% | 77.31%
12 | CCCCC/C=C/C(=O)CCc1ccc(O)c(OC)c1 [SHOGAOL] |  |  |  |  |  |  | 105% | 151.75%
13 | CNC(=N)NCCC[C@H](N)C(=O)O [TILARGININE] |  |  |  |  | 20.8 µM | 102% |  | 
